From publication PMC8202924, “Emodepside targets SLO-1 channels of Onchocerca ochengi and induces broad anthelmintic effects in a bovine model of onchocerciasis” (PLoS Pathogens, 2021)
Where two headings read alike, the source gives them in different places.

Experiments:
[1] = for Rumen contraction: over four days after treatment, from 1 contraction/min
Excerpt: Four non-pregnant, non-lactating cows naturally infected with O. ochengi were purchased from farmers in the Vina Division of the Adamawa Region and acclimatized at the IRAD Wakwa site for two weeks before the start of the trial. Cows were 3–6 years old and weighed 185–300 kg. They were housed in a 35 m^2 enclosure at night and fed with cotton seed cake (2 g/kg bodyweight) in the morning before grazing them on a 1 ha Brachiaria ruziziensis paddock between 9 am and 4 pm daily. Water and salt were supplied ad libitum when housed. Each cow was randomly allocated (by ear-tag number using an online research randomizer [available at https://www.randomizer.org]) to receive a single low dose of emodepside 0.15 mg/kg, a single high dose of emodepside 0.75 mg/kg, a low dose twice (emodepside 0.15 mg/kg on two consecutive days), or vehicle only (solketal). Prior to treatment, the cows were sedated with xylazine hydrochloride (Rompun). Verum or vehicle was administered IV into the jugular vein using a perfusion apparatus (Braun Perfusor Space) following an identical protocol to the Holstein pre-study described above.

[2] = Dose identification (tolerability, blood glucose) after single IV infusion in Holstein cattle; type: in vivo, Holstein cattle (Bos taurus)
Excerpt: To ensure that doses of emodepside would be well tolerated in cattle in Cameroon, and that any adverse effects would be manageable in the field, dose identification was first performed in two female Holstein cattle (Bos taurus) 13–15 months old in Germany. Animals were from Rinder Union West, 48147 Münster, Germany, and were kept in a pen in an outdoor climate housing system of approximately 8 × 10 m in size in Hanscheider Hof, 51399 Burscheid, Germany. Pens were equipped with a self-locking feeding fence, deep-straw bedding and an automatic cup drinker system. Animals were offered fresh corn- and grass-silage once daily ad libitum, drinking water from the onsite well and mineral licks ad libitum. Straw bedding was refreshed at least weekly. Tolerability and pharmacokinetics (PK) of emodepside were assessed after a single intravenous (IV) injection: emodepside (4.0% m/m in solketal) was administered by constant infusion via the external jugular vein using disposable sterile IV catheters (Vasofix Braunüle 14G, 2,2 × 50 mm, Braun, Germany), sterile syringes (Perfusor-Syringe 50 mL, Braun, Germany), tubing systems (Braun Original-Perfusor-tubing, 150 cm, Luer Lock), and a perfusion system (Braun Perfusor Space). Animal 1 received emodepside 2.17 mg/kg; animal 2 received emodepside 1 mg/kg. Safety and tolerability were assessed during and after each administration. […] To determine the PK profile of emodepside and any possible influence of the drug on blood glucose concentrations, blood samples were drawn before dosing and at 4 min, 8 min, 15 min, 30 min, 1 h, 2 h, 3 h, 4 h, 6 h, 8 h, 24 h, 32 h, 48 h, 72 h, 96 h and 168 h after administration. Samples for glucose determination were taken before dosing and at 15 min, 30 min, 1 h, 2 h, 3 h, 4 h, 6 h and 8 h after dosing, centrifuged at 10°C (3,220 × g) for 10 min and stored under cool conditions (<8°C).

[3] = Skin concentration of emodepside in the main trial, LC-MS/MS; type: in vivo, zebu (Ngaoundéré Gudali) cattle (B. t. indicus)
Method: Bovine samples (EDTA-plasma, skin snips and nodules) were stored at –80°C in Cameroon and shipped according to international transportation guidelines on dry ice to Bayer, Germany. Due to suspected contamination with other pathogens, samples required decontamination. Based on modified WHO guidelines for viral inactivation and reports of virus stability in fluids and solid media issued by the United States Army, decontamination of samples was performed. Samples were thawed slowly in a microbiological safety cabinet and the plasma samples were vortexed gently. Skin snips and nodules were homogenized in a Qiagen TissueLyser II (Qiagen NV, Hilden, the Netherlands) with stainless steel beads. Homogenates were weighed and mixed with 4.5 volumes of a 0.5% collagenase solution (collagenase from Clostridium histolyticum [>125 IU/mg] Merck KGaA, Darmstadt, Germany), then incubated at 37°C with orbital mixing at 140 rpm for 48 h.
Plasma samples, skin and nodule homogenates were precipitated in a 1:10 ratio with acetonitrile using a vortex mixer at 150 rpm for 10 min, then centrifuged for 5 min at 14,000 rpm. The supernatants were pipetted into gas-tight vials and incubated at 80°C for 21 min to achieve a core temperature of 80°C for 10 min, then cooled to 4°C in a water-ice bath. Finally, samples were filtered using a cellulose sterile filter (S&S Spartan 13/30) into standard HPLC vials for liquid chromatography–mass spectrometry analysis. For liquid chromatography on a C18 column, a water/methanol gradient (containing 10 mmol ammonium acetate and 0.1 mL/L formic acid) was used. Quantification of emodepside was performed by tandem mass spectrometry on an API 5500 instrument (AB Sciex, Darmstadt, Germany) using the transition of m/z = 1,120 ([M + H]^+) to its product ion m/z = 343.

[4] = system: Onchocerca ochengi microfilariae; assay: Dermal microfilarial density in naturally infected cattle; type: in vivo; conditions: MRSM, 4 mg/kg every other day for 3 days
Method: By group, the geometric mean Mf load per 100 mg skin ranged from 100 to 500 (Table 1); two animals found to be negative for skin Mf were distributed in different groups. Eighteen preselected nodules per animal were marked with tattoo ink, and their positions were recorded on a hardcopy ‘hide map’ and by digital video [57]. All assessments of drug efficacy were conducted by individuals blinded to the treatment groups. The study was conducted unmasked. All study personnel provided a signed declaration to conduct the study according to the specified protocol. Verum or vehicle was administered as described in the dose confirmation study.
Worms from a second unfixed nodule (at the same timepoints listed above) were subjected to a 3-(4,5-dimethylthiazol-2-yl)-2,5-diphenyltetrazolium bromide (MTT) assay for metabolic activity, in which the insoluble formazan product was dissolved in DMSO and quantified colorimetrically at 620 nm in a microplate reader (model LT4500, Labtech, Heathfield, East Sussex, UK). Finally, dermal microfilarial densities were determined by incubation of skin biopsies (in triplicate per animal per timepoint) and normalized to 100 mg skin [59].

[5] = 1 mg/kg IV perfusion, one animal

CC(C)C[C@H]1C(=O)O[C@H](Cc2ccc(N3CCOCC3)cc2)C(=O)N(C)[C@@H](CC(C)C)C(=O)O[C@H](C)C(=O)N(C)[C@@H](CC(C)C)C(=O)O[C@H](Cc2ccc(N3CCOCC3)cc2)C(=O)N(C)[C@@H](CC(C)C)C(=O)O[C@H](C)C(=O)N1C [emodepside]
Adverse effects ([1]; 0.15 mg/kg IV, over 1 h following administration): mild muscular tremors and salivation | Rumen contraction ([1]; 0.15 mg/kg IV): 1.5 contractions/min | Heart rate ([1]; 0.75 mg/kg IV, 6 h post treatment, increasing from 72 bpm, normal on day 4): 80 bpm | Blood glucose concentration ([1]; 0.75 mg/kg IV, 8 h after treatment): 158 to 200 mg/dL | Blood glucose concentration ([1]; 0.75 mg/kg IV, by 24 h (within the normal range)): 61 mg/dL | Rumen contraction ([1]; 0.75 mg/kg IV): 2 contractions/min | Temperature and respiratory rates ([1]; 0.15 and 0.75 mg/kg IV): not affected | Heart rate by the end of the perfusion [2, 5]: approximately 108 bpm | Heart rate, peak during the application [2, 5]: 140 bpm | Blood glucose, peak ([2]; 1 mg/kg IV, 3–8 h post-application, xylazine at 6–8 h may have contributed): ~ 12 mmol/L | Blood glucose ([2]; 1 mg/kg IV, after 24 h (normal)): 4.33 mmol/L | Adverse effects ([2]; 1 mg/kg IV, for approximately 1 h after application, then full recovery): Salivation and slight muscle tremors | Adverse effects ([2]; 2.17 mg/kg IV perfusion, one animal, treatment discontinued): severe generalised muscle tremor, salivation and tachycardia | Median ratio between skin and plasma concentration ([3]; 54 occasions, same study day, all emodepside groups): 1.1 | tmax observed in skin ([3]; EMO1L, 0.15 mg/kg IV single dose, animals in order B0696, B0698, B0700, B0730, B0731, B0762): 24 h | tmax observed in skin ([3]; EMO7H, 0.75 mg/kg IV daily for 7 days, animals in order B0404, B0434, B0694, B0695, B0734, B0750, B0765): 24 h

NCCS[As](SCCN)c1ccc(Nc2nc(N)nc(N)n2)cc1 [melarsomine]
Mf density over time [4]: complete clearance after one year
